Patent EP4722207A1, “OXOISOINDOLINYL-SUBSTITUTED TETRAHYDROPYRIMIDINEDIONE DERIVATIVE AND USE THEREOF” (Gluetacs Therapeutics (Shanghai) Co., Ltd., priority 2023, dated 2024)

Legend:
[1] = molecular target: T1, GSPT1 (Homo sapiens, UniProt P15170+Q96SW2); experiment: Western-blot assay, substrate protein degradation in hPBMCs: GSPT1; type: cell-based; settings: 24 hours of compound treatment, 50 nM and 500 nM
T1 construct: effects of the compounds of the present disclosure on the expression of target proteins in cells; endogenous in cells; host or cells: human PBMCs (hPBMCs)

[2] = system: MV-4-11; experiment: Cell viability assay (CellTiter-Meiluncell Luminescent), tumor cell proliferation, MV-4-11; settings: Homo sapiens, MV4-11, 96 h; for inhibition at 0.01 µM: read-out: Inhibition Rate at 10 nM (%); for inhibition at 0.5 µM: read-out: Inhibition Rate at 500 nM (%)
[3] = molecular target: T2, CK1α (Homo sapiens, UniProt P48729+Q96SW2); experiment: Western-blot assay, substrate protein degradation in hPBMCs: CK1α; type: cell-based; settings: 24 hours of compound treatment, 50 nM and 500 nM
T2 construct: effects of the compounds of the present disclosure on the expression of target proteins in cells; endogenous in cells; host or cells: human PBMCs (hPBMCs)

[4] = system: H2228; experiment: Cell viability assay (CellTiter-Meiluncell Luminescent), tumor cell proliferation, H2228; settings: Homo sapiens, NCI-H2228, 96 h; for inhibition at 0.01 µM: read-out: Inhibition Rate at 10 nM (%); for inhibition at 0.5 µM: read-out: Inhibition Rate at 500 nM (%)
[5] = system: MM.1S; experiment: Cell viability assay (CellTiter-Meiluncell Luminescent), tumor cell proliferation, MM.1S; settings: Homo sapiens, MM1.S, 96 h; for inhibition at 0.01 µM: read-out: Inhibition Rate at 10 nM (%); for inhibition at 0.5 µM: read-out: Inhibition Rate at 500 nM (%)
[6] = molecular target: T3, IKZF3 (Homo sapiens, UniProt Q96SW2+Q9UKT9); experiment: Western-blot assay, substrate protein degradation in hPBMCs: IKZF3; type: cell-based; settings: 24 hours of compound treatment, 50 nM and 500 nM
T3 construct: effects of the compounds of the present disclosure on the expression of target proteins in cells; endogenous in cells; host or cells: human PBMCs (hPBMCs)

[7] = molecular target: T4, IKZF1 (Homo sapiens, UniProt Q13422+Q96SW2); experiment: Western-blot assay, substrate protein degradation in hPBMCs: IKZF1; type: cell-based; settings: 24 hours of compound treatment, 50 nM and 500 nM
T4 construct: effects of the compounds of the present disclosure on the expression of target proteins in cells; endogenous in cells; host or cells: human PBMCs (hPBMCs)

[8] = system: H292; experiment: Cell viability assay (CellTiter-Meiluncell Luminescent), tumor cell proliferation, H292; settings: Homo sapiens, NCI-H292, 96 h; for inhibition at 0.01 µM: read-out: Inhibition Rate at 10 nM (%); for inhibition at 0.5 µM: read-out: Inhibition Rate at 500 nM (%)
[9] = molecular target: T5, WEE1 (Homo sapiens, UniProt P30291+Q96SW2); experiment: Western-blot assay, substrate protein degradation in hPBMCs: WEE1; type: cell-based; settings: 24 hours of compound treatment, 50 nM and 500 nM
T5 construct: effects of the compounds of the present disclosure on the expression of target proteins in cells; endogenous in cells; host or cells: human PBMCs (hPBMCs)

[10] = system: MDA-MB-231; experiment: Cell viability assay (CellTiter-Meiluncell Luminescent), tumor cell proliferation, MDA-MB-231; settings: Homo sapiens, MDA-MB-231, 96 h; for inhibition at 0.01 µM: read-out: Inhibition Rate at 10 nM (%); for inhibition at 0.5 µM: read-out: Inhibition Rate at 500 nM (%)
[11] = molecular target: T6, IKZF2 (Homo sapiens, UniProt Q96SW2+Q9UKS7); experiment: Western-blot assay, substrate protein degradation in hPBMCs: IKZF2; type: cell-based; settings: 24 hours of compound treatment, 50 nM and 500 nM
T6 construct: effects of the compounds of the present disclosure on the expression of target proteins in cells; endogenous in cells; host or cells: human PBMCs (hPBMCs)
T6 sequence (Q9UKS7 whole entry): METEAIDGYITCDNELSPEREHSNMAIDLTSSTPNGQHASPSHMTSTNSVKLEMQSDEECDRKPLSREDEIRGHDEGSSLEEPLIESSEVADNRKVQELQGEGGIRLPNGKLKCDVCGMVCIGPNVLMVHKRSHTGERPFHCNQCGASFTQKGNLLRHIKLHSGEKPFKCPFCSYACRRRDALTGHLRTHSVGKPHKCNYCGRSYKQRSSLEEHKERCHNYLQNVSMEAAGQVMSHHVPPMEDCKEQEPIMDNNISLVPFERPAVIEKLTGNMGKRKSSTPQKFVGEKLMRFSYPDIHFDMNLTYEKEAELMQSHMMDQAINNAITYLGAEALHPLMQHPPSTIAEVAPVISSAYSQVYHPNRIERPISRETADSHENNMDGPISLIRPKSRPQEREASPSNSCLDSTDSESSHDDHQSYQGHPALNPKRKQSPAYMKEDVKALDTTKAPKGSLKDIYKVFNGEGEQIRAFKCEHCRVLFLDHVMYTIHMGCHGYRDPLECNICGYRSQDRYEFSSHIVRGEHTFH
T6 sequence (Q96SW2 whole entry): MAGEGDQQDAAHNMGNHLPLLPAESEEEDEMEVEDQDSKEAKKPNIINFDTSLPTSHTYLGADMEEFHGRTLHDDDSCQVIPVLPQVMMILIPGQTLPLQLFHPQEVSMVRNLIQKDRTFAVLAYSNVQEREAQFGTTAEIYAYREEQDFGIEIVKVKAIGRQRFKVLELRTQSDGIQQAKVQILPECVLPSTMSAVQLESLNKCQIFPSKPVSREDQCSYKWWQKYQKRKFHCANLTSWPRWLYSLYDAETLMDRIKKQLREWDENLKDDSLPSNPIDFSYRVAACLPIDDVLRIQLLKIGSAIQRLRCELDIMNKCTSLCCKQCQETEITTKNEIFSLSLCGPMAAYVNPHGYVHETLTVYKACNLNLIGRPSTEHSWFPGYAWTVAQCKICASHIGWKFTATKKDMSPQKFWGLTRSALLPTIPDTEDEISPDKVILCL
T6 sequence (Q16531 whole entry partner): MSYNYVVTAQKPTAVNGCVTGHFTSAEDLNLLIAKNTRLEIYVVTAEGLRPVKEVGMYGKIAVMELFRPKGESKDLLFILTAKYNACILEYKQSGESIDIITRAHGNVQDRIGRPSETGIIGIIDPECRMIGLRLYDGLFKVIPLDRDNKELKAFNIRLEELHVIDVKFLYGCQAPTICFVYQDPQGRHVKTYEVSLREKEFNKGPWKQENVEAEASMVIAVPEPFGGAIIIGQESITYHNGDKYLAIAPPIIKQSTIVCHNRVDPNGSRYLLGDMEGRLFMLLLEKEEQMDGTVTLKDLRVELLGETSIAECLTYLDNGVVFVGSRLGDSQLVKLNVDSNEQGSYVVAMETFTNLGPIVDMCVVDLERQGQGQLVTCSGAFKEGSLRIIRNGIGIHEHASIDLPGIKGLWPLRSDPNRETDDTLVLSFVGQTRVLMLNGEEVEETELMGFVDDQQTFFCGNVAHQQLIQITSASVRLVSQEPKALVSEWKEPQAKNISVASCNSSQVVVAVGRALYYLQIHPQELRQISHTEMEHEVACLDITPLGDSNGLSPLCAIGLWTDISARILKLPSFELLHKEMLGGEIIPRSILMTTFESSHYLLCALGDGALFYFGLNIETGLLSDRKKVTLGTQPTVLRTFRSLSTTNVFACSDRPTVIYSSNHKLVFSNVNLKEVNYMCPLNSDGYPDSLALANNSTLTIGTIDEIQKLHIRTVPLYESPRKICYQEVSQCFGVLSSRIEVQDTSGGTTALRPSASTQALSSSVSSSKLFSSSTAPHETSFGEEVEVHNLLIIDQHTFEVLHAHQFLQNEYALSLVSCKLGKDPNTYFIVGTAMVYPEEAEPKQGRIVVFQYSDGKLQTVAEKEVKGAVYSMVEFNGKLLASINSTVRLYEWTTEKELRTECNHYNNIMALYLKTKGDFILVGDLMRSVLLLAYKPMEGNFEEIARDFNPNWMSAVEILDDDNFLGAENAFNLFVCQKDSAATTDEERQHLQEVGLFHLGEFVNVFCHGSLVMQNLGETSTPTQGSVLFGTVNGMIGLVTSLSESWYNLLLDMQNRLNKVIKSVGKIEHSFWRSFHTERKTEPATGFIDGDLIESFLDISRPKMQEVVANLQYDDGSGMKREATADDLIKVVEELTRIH

T5 sequence (P30291 whole entry): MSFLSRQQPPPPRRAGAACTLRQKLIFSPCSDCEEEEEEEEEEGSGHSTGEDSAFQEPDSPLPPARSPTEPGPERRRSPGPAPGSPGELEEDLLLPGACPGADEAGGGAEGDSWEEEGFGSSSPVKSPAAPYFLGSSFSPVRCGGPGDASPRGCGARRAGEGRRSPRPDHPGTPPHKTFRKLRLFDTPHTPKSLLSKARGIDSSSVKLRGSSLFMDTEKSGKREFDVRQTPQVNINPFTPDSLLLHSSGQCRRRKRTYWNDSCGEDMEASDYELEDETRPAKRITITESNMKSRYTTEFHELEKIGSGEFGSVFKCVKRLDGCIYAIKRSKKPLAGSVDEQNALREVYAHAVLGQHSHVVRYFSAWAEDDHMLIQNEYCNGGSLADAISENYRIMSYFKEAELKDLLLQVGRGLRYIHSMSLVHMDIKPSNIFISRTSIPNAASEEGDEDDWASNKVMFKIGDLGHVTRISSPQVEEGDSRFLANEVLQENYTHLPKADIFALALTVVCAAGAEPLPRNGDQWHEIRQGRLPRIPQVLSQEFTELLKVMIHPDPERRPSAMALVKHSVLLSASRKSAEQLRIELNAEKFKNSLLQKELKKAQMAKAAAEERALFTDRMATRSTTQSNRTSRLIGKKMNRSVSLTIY
T5 sequence (Q96SW2 whole entry): as the sequence (Q96SW2 whole entry) above
T5 sequence (Q16531 whole entry partner): as the sequence (Q16531 whole entry partner) above
T3 sequence (Q9UKT9 whole entry): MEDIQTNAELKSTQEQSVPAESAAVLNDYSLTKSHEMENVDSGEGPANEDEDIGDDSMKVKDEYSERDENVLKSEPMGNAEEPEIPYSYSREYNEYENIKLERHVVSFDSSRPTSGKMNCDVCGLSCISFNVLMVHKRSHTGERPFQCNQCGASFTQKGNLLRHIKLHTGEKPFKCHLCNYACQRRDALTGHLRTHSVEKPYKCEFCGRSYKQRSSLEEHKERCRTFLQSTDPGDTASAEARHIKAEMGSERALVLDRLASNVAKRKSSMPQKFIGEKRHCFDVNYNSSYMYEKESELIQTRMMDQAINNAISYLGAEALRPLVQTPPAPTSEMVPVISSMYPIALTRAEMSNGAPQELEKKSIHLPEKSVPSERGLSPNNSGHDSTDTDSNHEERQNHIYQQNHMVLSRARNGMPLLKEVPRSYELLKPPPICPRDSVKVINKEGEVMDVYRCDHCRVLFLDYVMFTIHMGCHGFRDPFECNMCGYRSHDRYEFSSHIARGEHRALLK
T3 sequence (Q96SW2 whole entry): as the sequence (Q96SW2 whole entry) above
T3 sequence (Q16531 whole entry partner): as the sequence (Q16531 whole entry partner) above
T4 sequence (Q13422 whole entry): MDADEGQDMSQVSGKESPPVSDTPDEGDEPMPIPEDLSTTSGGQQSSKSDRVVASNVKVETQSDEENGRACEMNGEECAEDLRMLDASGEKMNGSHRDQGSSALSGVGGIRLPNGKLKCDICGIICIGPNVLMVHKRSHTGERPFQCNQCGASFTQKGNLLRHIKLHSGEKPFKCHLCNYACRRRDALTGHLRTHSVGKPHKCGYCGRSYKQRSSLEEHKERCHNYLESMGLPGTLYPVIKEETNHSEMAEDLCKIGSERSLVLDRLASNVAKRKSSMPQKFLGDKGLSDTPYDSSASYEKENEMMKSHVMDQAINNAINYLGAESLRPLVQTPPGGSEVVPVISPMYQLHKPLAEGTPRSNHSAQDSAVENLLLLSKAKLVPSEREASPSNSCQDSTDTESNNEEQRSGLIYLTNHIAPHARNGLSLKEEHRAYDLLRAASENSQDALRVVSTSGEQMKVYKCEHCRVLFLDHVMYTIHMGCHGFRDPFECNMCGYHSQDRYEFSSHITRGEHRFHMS
T4 sequence (Q96SW2 whole entry): as the sequence (Q96SW2 whole entry) above
T4 sequence (Q16531 whole entry partner): as the sequence (Q16531 whole entry partner) above
T2 sequence (P48729 whole entry): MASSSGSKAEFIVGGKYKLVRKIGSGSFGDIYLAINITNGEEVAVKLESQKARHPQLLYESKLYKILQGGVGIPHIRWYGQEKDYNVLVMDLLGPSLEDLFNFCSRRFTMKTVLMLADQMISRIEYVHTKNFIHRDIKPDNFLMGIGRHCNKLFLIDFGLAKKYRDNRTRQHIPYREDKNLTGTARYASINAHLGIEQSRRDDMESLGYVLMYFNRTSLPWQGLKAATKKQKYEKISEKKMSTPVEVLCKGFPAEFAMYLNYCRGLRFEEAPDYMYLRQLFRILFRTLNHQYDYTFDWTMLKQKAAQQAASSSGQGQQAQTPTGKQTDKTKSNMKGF
T2 sequence (Q96SW2 whole entry): as the sequence (Q96SW2 whole entry) above
T2 sequence (Q16531 whole entry partner): as the sequence (Q16531 whole entry partner) above

Row | SMILES | substrate protein remaining % GSPT1 [1] | inhibition at 0.01 µM [2] [%] | inhibition at 0.5 µM [2] [%] | substrate protein remaining % CK1α [3] | inhibition at 0.01 µM [4] [%] | inhibition at 0.5 µM [4] [%] | inhibition at 0.01 µM [5] [%] | inhibition at 0.5 µM [5] [%] | substrate protein remaining % IKZF3 [6] | substrate protein remaining % IKZF1 [7] | inhibition at 0.01 µM [8] [%] | inhibition at 0.5 µM [8] [%] | substrate protein remaining % WEE1 [9] | inhibition at 0.01 µM [10] [%] | inhibition at 0.5 µM [10] [%] | substrate protein remaining % IKZF2 [11]
1 | O=C1CCN(N2Cc3cc(CN4CC=C(c5ncnc6sccc56)CC4)ccc3C2=O)C(=O)N1 [GT-08116, 1-(1-oxo-5-((4-(thieno[2,3-d]pyrimidin-4-yl)-3,6-dihydropyridin-1(2H)-yl)methyl)isoindolin-2-yl)dihydropyrimidine-2,4(1H,3H)-dione] | A (0% ≤ substrate protein remaining % ≤ 80%) | 40 to 60 | 80 to 100 | A (0% ≤ substrate protein remaining % ≤ 80%) | 15 to 20 | 20 to 25 | 10 to 20 | 60 to 80 | A (0% ≤ substrate protein remaining % ≤ 80%) | A (0% ≤ substrate protein remaining % ≤ 80%) | 15 to 20 | 15 to 20 | A (0% ≤ substrate protein remaining % ≤ 80%) | 25 to 40 | 25 to 40 | B (80%< substrate protein remaining %≤ 100%)
2 | Nc1cccc2c1CN(C1CCC(=O)NC1=O)C2=O (stereo not shown) [lenalidomide, reference compound] | – | 10 to 18 | 10 to 18 | – | 20 to 25 | 15 to 20 | 10 to 20 | 30 to 42 | – | – | 0 to 1 | 5 to 10 | – | 15 to 18 | 10 to 15 | –
3 | O=C1CCN(N2Cc3cc(CN4CC=C(c5cccc(Cl)c5Cl)CC4)ccc3C2=O)C(=O)N1 [GT-08054, 1-(5-((4-(2,3-dichlorophenyl)-3,6-dihydropyridin-1(2H)-yl)methyl)-1-oxoisoindolin-2-yl)dihydropyrimidine-2,4(1H,3H)-dione] | A (0% ≤ substrate protein remaining % ≤ 80%) | 18 to 25 | 80 to 100 | A (0% ≤ substrate protein remaining % ≤ 80%) | 20 to 25 | 40 to 60 | 5 to 10 | 80 to 100 | A (0% ≤ substrate protein remaining % ≤ 80%) | A (0% ≤ substrate protein remaining % ≤ 80%) | – | – | A (0% ≤ substrate protein remaining % ≤ 80%) | 25 to 40 | 80 to 100 | A (0% ≤ substrate protein remaining % ≤ 80%)
4 | Cc1sc2ncnc(C3=CCN(Cc4ccc5c(c4)CN(N4CCC(=O)NC4=O)C5=O)CC3)c2c1C [GT-08159, 1-(5-((4-(5,6-dimethylthieno[2,3-d]pyrimidin-4-yl)-3,6-dihydropyridin-1(2H)-yl)methyl)-1-oxoisoindolin-2-yl)dihydropyrimidine-2,4(1H,3H)-dione] | – | 30 to 40 | 80 to 100 | – | 10 to 15 | 25 to 30 | 0 to 5 | 60 to 80 | – | – | 15 to 20 | 20 to 40 | – | 10 to 15 | 18 to 25 | –
5 | O=C1CCN(N2C(=O)c3ccc(CN4CCN(c5ncnc6sc7c(c56)CCCC7)CC4)cc3C2=O)C(=O)N1 [GT-08102, 2-(2,4-dioxotetrahydropyrimidin-1(2H)-yl)-5-((4-(5,6,7,8-tetrahydrobenzo[4,5]thieno[2,3-d]pyrimidin-4-yl)piperazin-1-yl)methyl)isoindoline-1,3-dione] | – | 40 to 60 | 40 to 60 | – | 20 to 25 | 20 to 25 | 30 to 42 | 30 to 42 | – | – | – | – | – | – | – | –
6 | O=C1CCN(N2Cc3cc(CN4CCC(c5ncnc6sc(-c7ccccc7)cc56)CC4)ccc3C2=O)C(=O)N1 [GT-08085, 1-(1-oxo-5-((4-(6-phenylthieno[2,3-d]pyrimidin-4-yl)piperidin-1-yl)methyl)isoindolin-2-yl)dihydropyrimidine-2,4(1H,3H)-dione] | A (0% ≤ substrate protein remaining % ≤ 80%) | 30 to 40 | 25 to 30 | A (0% ≤ substrate protein remaining % ≤ 80%) | 25 to 30 | 30 to 40 | 30 to 42 | 42 to 60 | B (80%< substrate protein remaining %≤ 100%) | B (80%< substrate protein remaining %≤ 100%) | 20 to 40 | 40 to 60 | B (80%< substrate protein remaining %≤ 100%) | 25 to 40 | 40 to 60 | B (80%< substrate protein remaining %≤ 100%)
7 | Cc1sc2ncnc(N3CCCN(Cc4ccc5c(c4)CN(N4CCC(=O)NC4=O)C5=O)CC3)c2c1C [GT-08062, 1-(5-((4-(5,6-dimethylthieno[2,3-d]pyrimidin-4-yl)-1,4-diazepan-1-yl)methyl)-1-oxoisoindolin-2-yl)dihydropyrimidine-2,4(1H,3H)-dione] | B (80%< substrate protein remaining %≤ 100%) | – | – | B (80%< substrate protein remaining %≤ 100%) | 25 to 30 | 30 to 40 | 30 to 42 | 30 to 42 | A (0% ≤ substrate protein remaining % ≤ 80%) | B (80%< substrate protein remaining %≤ 100%) | 20 to 40 | 40 to 60 | B (80%< substrate protein remaining %≤ 100%) | 15 to 18 | 25 to 40 | A (0% ≤ substrate protein remaining % ≤ 80%)
8 | CC(C)c1cc2c(C3=CCN(Cc4ccc5c(c4)CN(N4CCC(=O)NC4=O)C5=O)CC3)ncnc2s1 [GT-08158, 1-(5-((4-(6-isopropylthieno[2,3-d]pyrimidin-4-yl)-3,6-dihydropyridin-1(2H)-yl)methyl)-1-oxoisoindolin-2-yl)dihydropyrimidine-2,4(1H,3H)-dione] | – | 30 to 40 | 100 to 110 | – | 25 to 30 | 60 to 80 | 5 to 10 | 80 to 100 | – | – | 20 to 40 | 40 to 60 | – | 18 to 25 | 80 to 100 | –
9 | Cc1nc(N2CCN(Cc3ccc4c(c3)C(=O)N(N3CCC(=O)NC3=O)C4=O)CC2)c2c(-c3ccccc3)csc2n1 [GT-08099, 2-(2,4-dioxotetrahydropyrimidin-1(2H)-yl)-5-((4-(2-methyl-5-phenylthieno[2,3-d]pyrimidin-4-yl)piperazin-1-yl)methyl)isoindoline-1,3-dione] | A (0% ≤ substrate protein remaining % ≤ 80%) | 25 to 30 | 5 to 10 | B (80%< substrate protein remaining %≤ 100%) | 25 to 30 | 30 to 40 | – | – | B (80%< substrate protein remaining %≤ 100%) | B (80%< substrate protein remaining %≤ 100%) | 20 to 40 | 20 to 40 | B (80%< substrate protein remaining %≤ 100%) | 18 to 25 | 25 to 40 | B (80%< substrate protein remaining %≤ 100%)
10 | O=C1CCN(N2Cc3cc(CN4CC=C(c5cccc(F)c5Cl)CC4)ccc3C2=O)C(=O)N1 [GT-08055, 1-(5-((4-(2-chloro-3-fluorophenyl)-3,6-dihydropyridin-1(2H)-yl)methyl)-1-oxoisoindolin-2-yl)dihydropyrimidine-2,4(1H,3H)-dione] | A (0% ≤ substrate protein remaining % ≤ 80%) | 25 to 30 | 80 to 100 | A (0% ≤ substrate protein remaining % ≤ 80%) | 10 to 15 | 20 to 25 | -10 to -5 | 80 to 100 | A (0% ≤ substrate protein remaining % ≤ 80%) | A (0% ≤ substrate protein remaining % ≤ 80%) | – | – | A (0% ≤ substrate protein remaining % ≤ 80%) | 18 to 25 | 60 to 80 | A (0% ≤ substrate protein remaining % ≤ 80%)
